From ChEMBL document CHEMBL5584315, “Evaluation of Phenazine Derivatives from the Lichen-Associated Streptomyces flavidovirens as Potent Antineuroinflammatory Agents In Vitro and In Vivo” (J Nat Prod, 2024)
The source made the active and inactive calls. The calls are words filed in the database; no cut-off is given here.

Assays:
[1] = tested on: BV-2; test: Antineuroinflammatory activity in LPS induced mouse BV-2 cells assessed as inhibition of NO production pretreated for 3 hrs followed by LPS addition and measured after 21 hrs by griess reagent based assay; format: functional, cell-based
[2] = tested on: BV-2; test: Cytotoxicity against mouse BV-2 cells assessed as cell viability at 40 uM measured after 24 hrs by MTT assay; format: toxicity, cell-based; conditions: bv-2, 24 h
[3] = Cytotoxicity against mouse BV-2 cells assessed as cell viability at 40 uM measured after 24 hrs by MTT assay relative to control; format: toxicity, cell-based; conditions: read-out: Activity
[4] = tested on: BV-2; test: Antineuroinflammatory activity in LPS induced mouse BV-2 cells assessed as inhibition of NO production at 20 uM pretreated for 3 hrs followed by LPS addition and measured after 21 hrs by griess reagent based assay relative to control; format: functional; parameters: scale not given: the % may be the effect or the level left; conditions: time 24 hrs
[5] = tested on: BV-2; test: Antineuroinflammatory activity in mouse BV-2 cells assessed as reversal of LPS-induced cell shortening measured after 24 hrs by microscope based analysis; format: functional
[6] = tested on: BV-2; test: Antineuroinflammatory activity in mouse BV-2 cells assessed as reversal of LPS-induced cell thickening measured after 24 hrs by microscope based analysis; format: functional
[7] = tested on: BV-2; test: Antineuroinflammatory activity in mouse BV-2 cells assessed as reversal of LPS-induced enlarged cell bodies measured after 24 hrs by microscope based analysis; format: functional
[8] = tested on: BV-2; test: Antineuroinflammatory activity in LPS-induced mouse BV-2 cells assessed as reduction in IL-6 expression at 5 uM preincubated for 3 hrs followed by LPS stimulation and measured after 21 hrs by ELISA method relative to control; format: functional; parameters: scale not given: the % may be the effect or the level left; conditions: time 24 hrs
[9] = tested on: BV-2; test: Antineuroinflammatory activity in LPS-induced mouse BV-2 cells assessed as reduction in TNF-alpha expression at 5 uM preincubated for 3 hrs followed by LPS stimulation and measured after 21 hrs by ELISA method relative to control; format: functional; parameters: scale not given: the % may be the effect or the level left; conditions: time 24 hrs
[10] = tested on: BV-2; test: Antineuroinflammatory activity in LPS-induced mouse BV-2 cells assessed as reduction in PGE2 cytokine production at 5 uM preincubated for 3 hrs followed by LPS stimulation and measured after 21 hrs by ELISA method relative to control; format: functional; parameters: scale not given: the % may be the effect or the level left; conditions: time 24 hrs
[11] = tested on: BV-2; test: Antineuroinflammatory activity in LPS-induced mouse BV-2 cells assessed as reduction in IL-6 expression at 10 uM preincubated for 3 hrs followed by LPS stimulation and measured after 21 hrs by ELISA method relative to control; format: functional; parameters: scale not given: the % may be the effect or the level left; conditions: time 24 hrs
[12] = tested on: BV-2; test: Antineuroinflammatory activity in LPS-induced mouse BV-2 cells assessed as reduction in TNF-alpha expression at 10 uM preincubated for 3 hrs followed by LPS stimulation and measured after 21 hrs by ELISA method relative to control; format: functional; parameters: scale not given: the % may be the effect or the level left; conditions: time 24 hrs
[13] = tested on: BV-2; test: Antineuroinflammatory activity in LPS-induced mouse BV-2 cells assessed as reduction in PGE2 cytokine production at 10 uM preincubated for 3 hrs followed by LPS stimulation and measured after 21 hrs by ELISA method relative to control; format: functional; parameters: scale not given: the % may be the effect or the level left; conditions: time 24 hrs
[14] = tested on: BV-2; test: Antineuroinflammatory activity in LPS-induced mouse BV-2 cells assessed as reduction in IL-6 expression at 20 uM preincubated for 3 hrs followed by LPS stimulation and measured after 21 hrs by ELISA method relative to control; format: functional; parameters: scale not given: the % may be the effect or the level left; conditions: time 24 hrs
[15] = tested on: BV-2; test: Antineuroinflammatory activity in LPS-induced mouse BV-2 cells assessed as reduction in TNF-alpha expression at 20 uM preincubated for 3 hrs followed by LPS stimulation and measured after 21 hrs by ELISA method relative to control; format: functional; parameters: scale not given: the % may be the effect or the level left; conditions: time 24 hrs
[16] = tested on: BV-2; test: Antineuroinflammatory activity in LPS-induced mouse BV-2 cells assessed as reduction in PGE2 cytokine production at 20 uM preincubated for 3 hrs followed by LPS stimulation and measured after 21 hrs by ELISA method relative to control; format: functional; parameters: scale not given: the % may be the effect or the level left; conditions: time 24 hrs
[17] = Antioxidant activity assessed as ABTS radical scavenging activity by absorbance based analysis; format: functional
[18] = Antioxidant activity assessed as DPPH radical scavenging activity by absorbance based analysis; format: functional
[19] = Inhibition of ROS production in LPS-induced mouse BV-2 cells as decrease in intracellular ROS production at 5 uM preincubated for 3 hrs followed by LPS stimulation and measured after 21 hrs by DCFH-DA staining based microscopic analysis relative to control; format: functional; conditions: time 24 hrs
[20] = Inhibition of ROS production in LPS-induced mouse BV-2 cells as decrease in intracellular ROS production at 10 uM preincubated for 3 hrs followed by LPS stimulation and measured after 21 hrs by DCFH-DA staining based microscopic analysis relative to control; format: functional; conditions: time 24 hrs
[21] = Inhibition of ROS production in LPS-induced mouse BV-2 cells as decrease in intracellular ROS production at 20 uM preincubated for 3 hrs followed by LPS stimulation and measured after 21 hrs by DCFH-DA staining based microscopic analysis relative to control; format: functional; conditions: time 24 hrs
[22] = tested on: BV-2; test: Inhibition of ROS production in LPS-induced mouse BV-2 cells as decrease in intracellular ROS production preincubated for 3 hrs followed by LPS stimulation and measured after 21 hrs by DCFH-DA staining based microscopic analysis relative to control; format: functional, cell-based; conditions: dose 5-20 µM, time 24.0 hrs
[23] = tested on: BV-2; test: Antineuroinflammatory activity in LPS-induced mouse BV-2 cells assessed as suppression of iNOS expression at 20 uM preincubated for 3 hrs followed by LPS stimulation and measured after 21 hrs by Western blot analysis (reference value: 524 +/-15%); format: functional; conditions: time 24 hrs
[24] = tested on: BV-2; test: Antineuroinflammatory activity in LPS-induced mouse BV-2 cells assessed as suppression of COX-2 expression at 20 uM preincubated for 3 hrs followed by LPS stimulation and measured after 21 hrs by Western blot analysis (reference value: 172 +/-9%); format: functional; conditions: time 24 hrs
[25] = tested on: BV-2; test: Antineuroinflammatory activity in LPS-induced mouse BV-2 cells assessed as suppression of TLR4 expression at 20 uM preincubated for 3 hrs followed by LPS stimulation and measured after 21 hrs by Western blot analysis (reference value: 414+/-14%); format: functional; conditions: time 24 hrs
[26] = tested on: BV-2; test: Antineuroinflammatory activity in LPS-induced mouse BV-2 cells assessed as suppression of TAK1 expression at 20 uM preincubated for 3 hrs followed by LPS stimulation and measured after 21 hrs by Western blot analysis (reference value: 225+/-10%); format: functional; conditions: time 24 hrs
[27] = tested on: BV-2; test: Antineuroinflammatory activity in LPS-induced mouse BV-2 cells assessed as suppression of p-IkappaBalpha/IkappaBalpha ratio at 20 uM preincubated for 3 hrs followed by LPS stimulation and measured after 21 hrs by Western blot analysis (reference value: 123+/-8%); format: functional
[28] = tested on: BV-2; test: Antineuroinflammatory activity in LPS-induced mouse BV-2 cells assessed as decrease in ratio of nuclear p65 to cytoplasmic p65 at 20 uM preincubated for 3 hrs followed by LPS stimulation and measured after 21 hrs by Western blot analysis relative to control; format: functional; parameters: scale not given: the % may be the effect or the level left
[29] = tested on: BV-2; test: Antineuroinflammatory activity in LPS-induced mouse BV-2 cells assessed as downregulation of keap1 expression at 20 uM preincubated for 3 hrs followed by LPS stimulation and measured after 21 hrs by Western blot analysis relative to control; format: functional; conditions: time 24 hrs
[30] = tested on: BV-2; test: Antineuroinflammatory activity in LPS-induced mouse BV-2 cells assessed as upregulation of Nrf2 expression at 20 uM preincubated for 3 hrs followed by LPS stimulation and measured after 21 hrs by Western blot analysis relative to control; format: functional; conditions: time 24 hrs
[31] = tested on: BV-2; test: Antineuroinflammatory activity in LPS-induced mouse BV-2 cells assessed as upregulation of HO-1 expression at 20 uM preincubated for 3 hrs followed by LPS stimulation and measured after 21 hrs by Western blot analysis relative to control; format: functional; conditions: time 24 hrs
[32] = tested on: BV-2; test: Antineuroinflammatory activity in LPS-induced mouse BV-2 cells assessed as upregulation of CAT expression at 20 uM preincubated for 3 hrs followed by LPS stimulation and measured after 21 hrs by Western blot analysis relative to control; format: functional; conditions: time 24 hrs
[33] = organism: Danio rerio; test: Inhibition of LPS-induced ROS stress in Zebrafish embryo model assessed as reduction in ROS expression by measuring green fluorescence intensity at 15 to 30 uM pretreated for 2 hrs followed by LPS stimulation and measured after 12 hrs by H2DCF-DA staining based fluorescence microscopy analysis; format: functional, organism-based; conditions: dose 15-30 µM, time 14.0 hrs

O=c1c(O)c(-c2ccc(O)c(O)c2)oc2cc(O)cc(O)c12 [QUERCETIN]
IC50 [1]: 9.8 µM

COC(=O)c1cccc2nc3c([C@H](OC(=O)c4ccc(Br)cc4)[C@@H](C)C(=O)OC)cccc3nc12
Activity [2]: Toxic

O=C1CCCN1Cc1ccco1
viability at 24 h, 40 µM [3]: > 98%
IC50 [1]: > 20 µM

CSc1nc(NC/C=C(/C)CO)c2ncn([C@@H]3O[C@H](COC(C)=O)[C@@H](O)[C@H]3O)c2n1
viability at 24 h, 40 µM [3]: > 98%
IC50 [1]: > 20 µM

O=C(O)c1ccc[nH]1
viability at 24 h, 40 µM [3]: > 98%
IC50 [1]: 19.5 µM

O=C1N[C@@H](Cc2c[nH]c3ccccc23)C(=O)N2CCC[C@@H]12 [BREVIANAMIDE F]
viability at 24 h, 40 µM [3]: > 98%
IC50 [1]: > 20 µM

CC(=O)NCC(=O)c1c[nH]c2ccccc12
viability at 24 h, 40 µM [3]: > 98%
IC50 [1]: > 20 µM

O=C(O)c1cccc2nc3ccccc3nc12 [PHENAZINE-1-CARBOXYLIC ACID]
viability at 24 h, 40 µM [3]: > 98%
IC50 [1]: 8.4 µM

COC(=O)c1cccc2nc3c([C@H](O)[C@H](C)C(=O)OC)cccc3nc12
viability at 24 h, 40 µM [3]: > 98%
IC50 [1]: 8.2 µM

COC(=O)c1cc2c([nH]c3ccccc32)c(-c2ccc(CO)o2)n1
Activity [2]: Toxic

COC(=O)[C@H](C)[C@@H](O)c1cccc2nc3c(C(=O)O)cccc3nc12
viability at 24 h, 40 µM [3]: > 98%
IC50 [1]: 8 µM
Activity [4]: 70%
Activity [5]: Dose-Dependent Effect
Activity [6]: Dose-Dependent Effect
Activity [7]: Dose-Dependent Effect
Activity [8]: 20%
Activity [9]: 10%
Activity [10]: 34%
Activity [11]: 38%
Activity [12]: 33%
Activity [13]: 47%
Activity [14]: 49%
Activity [15]: 47%
Activity [16]: 62%
EC50 [17]: 900 µM
EC50 [18]: 1900 µM
inhibition at 5 µM [19]: 8%
inhibition at 10 µM [20]: 30%
inhibition at 20 µM [21]: 66%
inhibition [22]: Dose-Dependent Effect
Activity [23]: 303%
Activity [24]: 105%
Activity [25]: 73%
Activity [26]: 38%
Activity [27]: 36%
Activity [28]: 60%
Activity [29]: 36%
Activity [30]: 67%
Activity [31]: 54%
Activity [32]: 10%
inhibition [33]: Active
